Data: ChEMBL document CHEMBL5729761, “Polycyclic compounds as allosteric SHP2 inhibitors” (2023)

Target: T1, Tyrosine-protein phosphatase non-receptor type 11 (Homo sapiens, UniProt Q06124)
T1 sequence (Q06124 whole entry): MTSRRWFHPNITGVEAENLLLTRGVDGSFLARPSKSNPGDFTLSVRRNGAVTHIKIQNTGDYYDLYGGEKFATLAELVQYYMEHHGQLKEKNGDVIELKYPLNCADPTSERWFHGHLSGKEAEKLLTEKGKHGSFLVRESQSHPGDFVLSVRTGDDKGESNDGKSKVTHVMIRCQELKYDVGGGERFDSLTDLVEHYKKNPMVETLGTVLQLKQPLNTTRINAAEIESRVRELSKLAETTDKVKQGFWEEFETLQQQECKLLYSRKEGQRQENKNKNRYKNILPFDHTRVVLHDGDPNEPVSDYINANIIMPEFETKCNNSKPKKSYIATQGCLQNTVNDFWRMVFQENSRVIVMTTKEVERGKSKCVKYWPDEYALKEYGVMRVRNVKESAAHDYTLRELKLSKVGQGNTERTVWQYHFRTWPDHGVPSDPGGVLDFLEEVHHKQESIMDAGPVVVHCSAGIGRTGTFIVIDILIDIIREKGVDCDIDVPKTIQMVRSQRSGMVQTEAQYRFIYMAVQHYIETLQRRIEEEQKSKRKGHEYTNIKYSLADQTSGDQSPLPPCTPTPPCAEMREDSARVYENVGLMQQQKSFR
Assay: SHP2 Allosteric Inhibition Assay: The inhibition of SHP2 by compounds of the invention (concentrations varying from 0.00005-10 μM) was monitored using an assay in which 0.2 nM of SHP2 was incubated with 0.5 μM of Activating Peptide 1 (sequence: H2N LN(pY)IDLDLV(dPEG8)LST(pY)ASINFQK-amide) or Activating Peptide 2 (sequence: H2N-LN(pY)AQLWHA(dPEG8)LTI(pY)ATIRRF-amide). After 30-60-minutes incubation at 25° C., the surrogate substrate DiFMUP (Invitrogen, Cat #D6567) was added to the reaction and activity was determined by a kinetic read using a microplate reader (Envision, Perkin-Elmer or Spectramax M5, Molecular Devices). The excitation and emission wavelengths were 340 nm and 450 nm, respectively. Initial rates were determined from a linear fit of the data, and the inhibitor dose response curves were analyzed using normalized IC50 regression curve fitting with control based normalization.

IC50: < 50 nM
SMILES: Cc1nc(N2CCC3(CC2)CO[C@@H](C)[C@H]3N)n2ccnc2c1-c1ccc2nccnc2c1
